In patent publication US20060084599A1, “Compositions, methods and kits relating to notch signaling” (Maine Medical Center, priority 2003, published 2006):

How the values were obtained:
[1] = tested on: FGF1R136K NIH 3T3 cell transfectants; assay: Thrombin stimulation and immunoblot analysis of FGF1 release; type: cell-based, murine
Experimental: FGF1R136K NIH 3T3 cell transfectants or adenovirally-transduced NIH 3T3 cells were washed with DMEM containing 5 units/ml of heparin (Sigma) and stimulated with either 10 μg/ml α-thrombin (a gift from Dr. J. Fenton) or 5 μM TRAP (Sigma) at 37° C. for different periods of time. Control cells were incubated in the absence of thrombin for the same time period. Conditioned media were collected at each time period, filtered, and concentrated as previously described (Jackson et al., 1992, Proc. Natl. Acad. Sci. U.S.A. 89:10691-10695). The concentrates were resolved by SDS-PAGE and subjected to immunoblot analysis using a rabbit antibody against either FGF1 (Jackson et al., 1992), Syt1 (LaVallee et al., 1998, J. Biol. Chem. 273:22217-22223) or Myc (Oncogene). The heat shock-induced release of FGF1 was performed at 42° C. for 110 minutes as previously described (Jackson et al., 1992). Cell viability was assessed by measuring lactate dehydrogenase activity in the conditioned medium after filtration as disclosed previously elsewhere herein (published as Mandinova et al., 2003, J. Cell Sci. 116:2687-2696), and total cell lysates were obtained and processed for immunoblot analysis as described (Landriscina et al., 2001, J. Biol. Chem. 276:22544-22552).
Stable FGF1R136K NIH 3T3 cell transfectants were pre-incubated with either 100 ng/ml pertussis toxin (PTX) or 10 ng/ml cholera toxin (CT) for 60 minutes at 37° C. in DMEM containing 10% BCS. After pre-incubation, the cells were washed, stimulated with 10 μg/ml of thrombin for different periods of time in the presence of either 100 ng/ml PTX or 10 ng/ml CT, conditioned medium collected, and subjected to immunoblot analysis as described above.

NIH 3T3 cells = assay: Cell migration (scratch) assay; type: cell-based, mouse; settings: stable NIH 3T3 cell transfectants expressing the ligand
Experimental: Cell Migration Assay. Approximately 10^5 Sj1 or sDl1 NIH 3T3 cells were plated in 6-well plastic plates (Falcon) DMEM supplemented with 10% (w/v) bovine calf serum (BCS; Hyclone) and after the cells reached approximately 60-70% confluence, the cell monolayer was scratched using a plastic cell scraper. Photomicrographs were taken immediately after the injury and 24 hours and 48 hours later.

cortactin = assay: Phosphotyrosine cortactin immunoblot; type: cell-based, mouse; settings: stable NIH 3T3 cell transfectants expressing the ligand
Experimental: Immunoblot Analysis. Cell lysates from insert-less vector sDl1 and sJ1 NIH 3T3 cell transfectants were prepared in 20 mM Tris HCl, pH 7.5, containing 300 mM sucrose, 60 mM—KCl, 15 mM NaCl, 0.5 mM EDTA, 0.5% (v/v) Triton X-100, 1 mM phenylmethylsulfonyl fluoride, 10 μg/ml leupeptin, 2 μg/ml aprotinin, 0.1% (w/v) deoxycholic acid and 1 mM sodium orthovanadate. Samples of equal protein content were subjected to SDS-PAGE and immunoblot analysis was performed as previously described (Small et al., 2001, J. Biol. Chem. 276:32022-32030) using either a rabbit anti-Src [pY418] phosphospecific antibody (Biosource International), a rabbit anti-total Src antibody (Santa Cruz Biotechnology), a rabbit polyclonal anti-cortactin antibody (a gift from Dr. Xi Zhan, American Red Cross), or an anti-phosphotyrosine antibody (Upstate). Immunoprecipitation of cortactin was performed as previously described (Zhan et al., 1993, J. Biol. Chem. 268:24427-24431).

[2] = tested on: NIH 3T3 cell transfectants; assay: Colony formation in soft agar (anchorage-independent growth); type: cell-based, murine; settings: stable NIH 3T3 cell transfectants expressing the ligand
Experimental: Clonal populations of NIH 3T3 cells stably transfected with vector control, soluble Jagged1 (sJ1), constitutively active Notch1 (caN1), constitutively active Notch 2 (caN2), dominant negative Notch 1 (dnN1), dominant negative Notch 2 (dnN2), an oncogenic mutant of FGF1 engineered with the FGF4 signal peptide sequence (hst-β (FGF4):FGF1), or constitutively active oncogenic Ras construct (caRas), were plated on 6 cm tissue culture dishes with 0.5% agar in an overlay containing DMEM (Gibco BRL) media, 10% bovine calf serum (BCS; Hyclone), and 0.33% agar at 1.5×10^3 cells/dish. As indicated, some dishes were also treated with 1 μM of the FGFR1-specific inhibitor, PD166866 (Panek et al., 1998, J. Pharmacol. Exp. Ther. 286: 569-577) and/or 10 ng/ml recombinant human FGF1 and 10 U/ml heparin (Sigma). Cells were fed with 0.5 ml of media with or without FGF1 and/or the FGFR1-specific inhibitor every 3 days as indicated. Twenty days after plating, colonies were stained with p-iodonitrotetrazolium violet (Sigma) for visualization. Quantitation of colony formation was achieved by counting all p-iodonitrotetrazolium violet-stained colonies consisting of more than 4 cells under a Zeiss Stemi SVII Apo dissecting microscope.
Anchorage-Dependent and -Independent Cell Growth Assays. Approximately 3×10^4 cells were plated on fibronectin (10 μg/cm^2)-coated in 12-well cell culture dishes (Falcon) in DMEM containing 10% BCS (v/v) (Hyclone). Three wells of the individual NIH 3T3 cell transfectants were harvested every third day and cell number was quantitated using a hemocytometer. Anchorage-independent cell growth was evaluated by plating in duplicate approximately 1.7×10^3 cells in DMEM containing 0.5% (w/v) agar (Sigma) 10% (v/v) BCS into 5 cm plastic dishes (Falcon) as previously described (Small et al., 2003, J. Biol. Chem. 278:16405-16413).

Row | Molecule | time after which detectable extracellular FGF-1 was present ([1]; 37° C.) [min] | migratory behavior (NIH 3T3 cells) | level of tyrosine-phosphorylated cortactin (cortactin) | anchorage-independent growth of transfectants [2] | export of FGF2 [1] | thrombin concentration giving maximal release of FGF1R136K ([1]; 37° C.) [µg/mL] | release of FGF1R136K into the extracellular compartment ([1]; 37° C., 10 μg/ml α-thrombin or 5 μM TRAP) | release of FGF1R136K from cells transduced with constitutively active Notch1 ([1]; caN1-transduced FGF1R136K NIH 3T3 cells) | release of S100A13 ([1]; cells co-expressing S100A13 and FGF1R136K, 37° C.) | release of p40 Syt1 ([1]; p40 Syt1-transduced FGF1R136K NIH 3T3 cells)
1 | sJ1: Soluble Jagged1, amino acid residues about 1 to 1067 (SEQ ID NO:3) of full-length human Jagged1 | 5 | exhibited a decrease in their migratory potential | increased level | form colonies in soft agar |  |  |  |  |  | 
2 | thrombin | 5 |  |  |  | unable to induce the export of FGF2 | 10 | rapid and sustained appearance of the FGF1R136K mutant in the extracellular compartment | unable to initiate the release of the FGF1R136K mutant | presence of S100A13 in the extracellular compartment with kinetics similar to that observed with FGF1 | presence of p40 Syt1in the extracellular compartment
3 | sDl1: soluble non-transmembrane form (extracellular domain) of the Notch ligand Delta1 (protein, left off: small tags and cut ends, soluble non-transmembrane form (extracellular domain) of the Notch ligand Delta1) QVWSSGVFELKLQEFVNKKGLLGNRNCCRGGAGPPPCACRTFFRVCLKHYQASVSPEPPCTYGSAVTPVLGVDSFSLPDGGGADSAFSNPIRFPFGFTWPGTFSLIIEALHTDSPDDLATENPERLISRLATQRHLTVGEEWSQDLHSSGRTDLKYSYRFVCDEHYYGEGCSVFCRPRDDAFGHFTCGERGEKVCNPGWKGPYCTEPICLPGCDEQHGFCDKPGECKCRVGWQGRYCDECIRYPGCLHGTCQQPWQCNCQEGWGGLFCNQDLNYCTHHKPCKNGATCTNTGQGSYTCSCRPGYTGATCELGIDECDPSPCKNGGSCTDLENSYSCTCPPGFYGKICELSAMTCADGPCFNGGRCSDSPDGGYSCRCPVGYSGFNCEKKIDYCSSSPCSNGAKCVDLGDAYLCRCQAGFSGRHCDDNVDDCASSPCANGGTCRDGVNDFSCTCPPGYTGRNCSAPVSRCEHAPCHNGATCHERGHRYVCECARGYGGPNCQFLLPELPPGPAVVDLTEKLEGQGGPFPW |  | displayed normal motility | decrease | form colonies in soft agar |  |  |  |  |  | 
